The results in this text go back to patent US20260265694A1, “USE OF A VITISIN COMPOUND FOR THE PRODUCTION OF HEMATOPOIETIC CELLS” (ETABLISSEMENT FRANCAIS DU SANG, priority 2022, published 2026).

The test system of assay [1] is MEP isolated from peripheral blood CD34+ cells. The experiment in a line: ERYTHRO 1 PROTOCOL on sorted MEP cells. The class given is cell-based, human. As to conditions: MEPs, 10 μM. Here is the method:
(§1) b. Isolation of CMP and MEP Progenitors The CD34^+ cells previously isolated via an immunomagnetic technique were marked with anti-CD34-BV421 (1:100 000), anti-CD45RA-BB517 (1:100 000), anti-CD123-Alexa647 (1.5:100 000) antibodies (BD Pharmingen) and a cocktail of anti-LIN-PE antibodies (2:100 000) for 15 minutes. The LIN cocktail antibodies are directed against markers specific to mature cells (CD2, CD3, CD4, CD7, CD8, CD10, CD11b, CD14, CD19, CD20, CD56, CD235a). This LIN cocktail thus allows enrichment in “LIN^neg” immature cells by depletion of mature cells. After incubation with these antibodies, the cells are rinsed with a solution of PBS^+ (PBS+2% Fetal Calf Serum (FCS)) and centrifuged (430×g, 10 min. 4° C.). After resuspension of the cells in PBS^+, CMPs with the phenotype CD34^+LIN^negCD123^+CD45RA^neg and MEPs with the phenotype CD34^+LIN^negCD123^negCD45RA^neg are sorted and harvested using an ARIA cell sorter (Manz et al., 2002). c. Isolation of BFU-E and CFU-E Progenitors Placental blood CD34^+ cells, previously isolated by immunomagnetic sorting, are marked with antibodies specific to surface antigens allowing them to target and discriminate BFU-E primitive erythrocyte progenitors, namely anti-CD34, anti-GPA, anti CD123 and anti-CD36 antibodies. Primitive erythrocyte progenitors (BFU-Es) are defined by the following phenotype: CD34^+CD123^negCD36^negGPA^neg. […]

Assay [2] relates to CMP isolated from peripheral blood CD34+ cells. Nature of the assay: ERYTHRO 1 PROTOCOL on sorted CMP cells. The class given is cell-based, human. As to conditions: CMPs, 10 μM. On the procedure: as §1

As to `Oc1ccc(C2Oc3ccc(/C=C/c4cc(O)cc5c4[C@H](c4cc(O)cc(O)c4)[C@@H](c4ccc(O)cc4)O5)cc3C2c2cc(O)cc3c2C(c2cc(O)cc(O)c2)C(c2ccc(O)cc2)O3)cc1` (stereo in doubt) [vitisin B, 5-[(2R,2'S,3R,3'S)-5-[(1E)-2-[(2S,3S)-3-(3,5-Dihydroxyphenyl)-2,3-dihydro-6-hydroxy-2-(4-hydroxyphenyl)-4-benzofuranyl]ethenyl]-2,2′,3,3′-tetrahydro-6′-hydroxy-2,2′-bis(4-hydroxyphenyl)[3,4′-bibenzofuran]-3′-yl]-1,3-benzenediol], the “erythrocyte differentiation (acquisition of the phenotype CD71+GPA+)” value in assay [1] (FIG. 4A) and in assay [2] (FIG. 4A) was “acceleration of erythrocyte differentiation” throughout. The “reduction relative to the control in CD71 membrane expression” value in assay [1] (as early as D7, FIG. 4B) is “up to 40%”; in assay [2] (as early as D7, FIG. 4B), “up to 40%”.
